In ChEMBL document CHEMBL4014287, “Jesridonin in combination with paclitaxel demonstrates synergistic anti-tumor activity in human esophageal carcinoma cells” (Bioorg Med Chem Lett, 2017):
Active and inactive are the calls of the source. The calls are words filed in the database; no cut-off is given here.

Tests used:
Mus musculus [1] = assay: Hepatotoxicity in nude mouse xenografted with human EC109 cells at 10 mg/kg in presence of paclitaxel measured after 21 days by histopathological analysis; assay type: toxicity, organism-based; conditions: in vivo, 504 h
Mus musculus [2] = assay: Nephrotoxicity in nude mouse xenografted with human EC109 cells at 10 mg/kg in presence of paclitaxel measured after 21 days by histopathological analysis; assay type: toxicity, organism-based; conditions: in vivo, 504 h
ECa-109 cell line [3] = assay: Cytotoxicity against human EC109 cells assessed as combination index at 5 uM in presence of 2.5 nM paclitaxel; assay type: functional
ECa-109 cell line [4] = assay: Cytotoxicity against human EC109 cells assessed as combination index at 10 uM in presence of 2.5 nM paclitaxel; assay type: functional
Mus musculus [5] = assay: Toxicity in nude mouse xenografted with human EC109 cells assessed as body weight loss at 10 mg/kg in presence of paclitaxel measured after 21 days; assay type: organism-based; conditions: in vivo, 504 h
ECa-109 cell line [6] = assay: Cytotoxicity against human EC109 cells assessed as combination index at 15 uM in presence of 5 nM paclitaxel; assay type: functional
ECa-109 cell line [7] = assay: Antitumor activity against human EC109 cells xenografted in nude mouse assessed as induction of necrosis at 10 mg/kg measured after 21 days by H and E staining based assay; assay type: functional, organism-based
Mus musculus [8] = assay: Toxicity in nude mouse xenografted with human EC109 cells assessed as skin ulceration at 10 mg/kg in presence of paclitaxel measured after 21 days; assay type: organism-based; conditions: in vivo, 504 h
ECa-109 cell line [9] = assay: Cytotoxicity against human EC109 cells assessed as combination index at 15 uM in presence of 10 nM paclitaxel; assay type: functional
ECa-109 cell line [10] = assay: Antitumor activity against human EC109 cells xenografted in nude mouse assessed as induction of necrosis at 10 mg/kg in presence of paclitaxel measured after 21 days by H and E staining based assay; assay type: functional, organism-based
ECa-109 cell line [11] = assay: Cytotoxicity against human EC109 cells assessed as combination index at 30 uM in presence of 10 nM paclitaxel; assay type: functional
ECa-109 cell line [12] = assay: Induction of apoptosis in human EC109 cells assessed as increase in Bid level at 15 uM in presence of 5 nM paclitaxel by Western blot method; assay type: functional, cell-based
ECa-109 cell line [13] = assay: Induction of apoptosis in human EC109 cells assessed as necrotic cells at 15 uM after 24 hrs in presence of paclitaxel by Annexin V-FITC/propidium iodide staining based flow cytometry (reference value: 1.6 %); assay type: functional
ECa-109 cell line [14] = assay: Induction of apoptosis in human EC109 cells assessed as nuclear condensation at 15 uM in presence of 5 nM paclitaxel after 24 hrs by Hochest 33258 staining based fluorescent microscopic analysis; assay type: functional, cell-based
Mus musculus [15] = assay: Hepatotoxicity in nude mouse xenografted with human EC109 cells assessed as change in serum albumin level at 10 mg/kg in presence of paclitaxel measured after 21 days; assay type: toxicity, organism-based; conditions: in vivo, 504 h
ECa-109 cell line [16] = assay: Antitumor activity against human EC109 cells xenografted in nude mouse assessed as reduction in tumor size at 10 mg/kg in presence of 5 mg/kg paclitaxel measured after 21 days; assay type: functional, organism-based
Mus musculus [17] = assay: Hepatotoxicity in nude mouse xenografted with human EC109 cells assessed as change in serum ALT level at 10 mg/kg in presence of paclitaxel measured after 21 days; assay type: toxicity, organism-based; conditions: in vivo, 504 h
ECa-109 cell line [18] = assay: Induction of apoptosis in human EC109 cells assessed as increase in PUMA level at 15 uM in presence of 5 nM paclitaxel by Western blot method; assay type: functional, cell-based
ECa-109 cell line [19] = assay: Antitumor activity against human EC109 cells xenografted in nude mouse assessed as increase in apoptotic cells at 10 mg/kg in presence of paclitaxel measured after 21 days by TUNEL assay; assay type: functional, organism-based
ECa-109 cell line [20] = assay: Induction of apoptosis in human EC109 cells assessed as late apoptotic cells at 15 uM after 24 hrs in presence of paclitaxel by Annexin V-FITC/propidium iodide staining based flow cytometry (reference value: 1%); assay type: functional
Mus musculus [21] = assay: Hepatotoxicity in nude mouse xenografted with human EC109 cells assessed as change in serum AST level at 10 mg/kg in presence of paclitaxel measured after 21 days; assay type: toxicity, organism-based; conditions: in vivo, 504 h
ECa-109 cell line [22] = assay: Induction of apoptosis in human EC109 cells assessed as decrease in Bcl-2 level at 15 uM in presence of 5 nM paclitaxel by Western blot method; assay type: functional, cell-based
Mus musculus [23] = assay: Toxicity in nude mouse xenografted with human EC109 cells assessed as skin ulceration at 10 mg/kg measured after 21 days; assay type: organism-based; conditions: in vivo, 504 h
ECa-109 cell line [24] = assay: Induction of apoptosis in human EC109 cells assessed as late apoptotic cells at 15 uM after 24 hrs by Annexin V-FITC/propidium iodide staining based flow cytometry (reference value: 1%); assay type: functional
Mus musculus [25] = assay: Toxicity in nude mouse xenografted with human EC109 cells assessed as body weight loss at 10 mg/kg measured after 21 days; assay type: organism-based; conditions: in vivo, 504 h
ECa-109 cell line [26] = assay: Induction of apoptosis in human EC109 cells assessed as decrease in Bcl-XL level at 15 uM in presence of 5 nM paclitaxel by Western blot method; assay type: functional, cell-based
ECa-109 cell line [27] = assay: Induction of apoptosis in human EC109 cells assessed as nuclear shrinkage at 15 uM after 24 hrs by Hochest 33258 staining based fluorescent microscopic analysis; assay type: functional, cell-based
ECa-109 cell line [28] = assay: Induction of apoptosis in human EC109 cells assessed as early apoptotic cells at 15 uM after 24 hrs by Annexin V-FITC/propidium iodide staining based flow cytometry (reference value: 1.3%); assay type: functional
ECa-109 cell line [29] = assay: Induction of apoptosis in human EC109 cells assessed as decrease in pro-caspase 9 expression at 15 uM in presence of 5 nM paclitaxel by Western blot method; assay type: functional, cell-based

Q: With `C=C1C(=O)[C@@]23[C@@H]4OC(c5ccc(Cl)cc5)O[C@@]25OC[C@@]2([C@H]([C@@H]5O)C(C)(C)CC[C@@H]2O)[C@@H]3CC[C@@H]14` (some centres undefined) as the compound, how does the Activity (Mus musculus [1]) read?
A: The Activity was “Non-Toxic”.

Q: And the Activity (Mus musculus [2])?
A: The Activity was “Non-Toxic”.

Q: And the CI (ECa-109 cell line [3])?
A: Its CI is 1.79.

Q: What about the CI (ECa-109 cell line [4]) of the same compound?
A: Its CI is 0.56.

Q: What about the Activity (Mus musculus [5]) of the same compound?
A: Its Activity is “Non-Toxic”.

Q: What about the CI (ECa-109 cell line [6]) of the same compound?
A: The CI was 0.37.

Q: And the Activity (ECa-109 cell line [7])?
A: Its Activity is “Active”.

Q: And the Activity (Mus musculus [8])?
A: Its Activity is “Non-Toxic”.

Q: And the CI (ECa-109 cell line [9])?
A: Its CI is 0.68.

Q: And the Activity (ECa-109 cell line [10])?
A: The Activity was “Active”.

Q: What about the CI (ECa-109 cell line [11]) of the same compound?
A: Its CI is 1.12.

Q: What about the Activity (ECa-109 cell line [12]) of the same compound?
A: Its Activity is “Active”.

Q: What about the Activity (ECa-109 cell line [13]) of the same compound?
A: The Activity was 1.5%.

Q: What about the Activity (ECa-109 cell line [14]) of the same compound?
A: The Activity was “Active”.

Q: What about the Activity (Mus musculus [15]) of the same compound?
A: The Activity was “Non-Toxic”.

Q: What about the Activity (ECa-109 cell line [16]) of the same compound?
A: Its Activity is “Active”.

Q: What about the Activity (Mus musculus [17]) of the same compound?
A: The Activity was “Non-Toxic”.

Q: What about the Activity (ECa-109 cell line [18]) of the same compound?
A: The Activity was “Active”.

Q: And the Activity (ECa-109 cell line [19])?
A: The Activity was “Active”.

Q: And the Activity (ECa-109 cell line [20])?
A: The Activity was 9.7%.

Q: What about the Activity (Mus musculus [21]) of the same compound?
A: The Activity was “Non-Toxic”.

Q: What about the Activity (ECa-109 cell line [22]) of the same compound?
A: Its Activity is “Active”.

Q: What about the Activity (Mus musculus [23]) of the same compound?
A: The Activity was “Non-Toxic”.

Q: And the Activity (ECa-109 cell line [24])?
A: The Activity was 5.3%.

Q: What about the Activity (Mus musculus [25]) of the same compound?
A: The Activity was “Non-Toxic”.

Q: And the Activity (ECa-109 cell line [26])?
A: Its Activity is “Active”.

Q: What about the Activity (ECa-109 cell line [27]) of the same compound?
A: Its Activity is “Active”.

Q: And the Activity (ECa-109 cell line [28])?
A: The Activity was 20.2%.

Q: And the Activity (ECa-109 cell line [29])?
A: The Activity was “Active”.
